Key:
[1] = test system: CD14+ monocytes and dendritic cells; experiment: CD40 activation in myeloid cells by unconjugated CpG oligonucleotides; type: cell-based; settings: human myeloid cells; 40 nM, 48 hours; compared to the 12070 CpG oligonucleotide
Experimental: Trima residuals were received from Vitalant and diluted 1:3 with Phosphate Buffered Saline (PBS, Gibco). Diluted blood was underplayed with 15 mL Ficoll-Paque (GE Healthcare). Tubes were centrifuged for 30 minutes at 400×g with break off. PBMCs were collected from the interface, resuspended and washed in FACS buffer (PBS with 0.5% Bovine Serum Albumin (Gibco)). After one wash, PBMCs were resuspended in Complete RPMI (RPMI+10% FBS). PBMCs were immediately plated onto a 96-well format (1e6/well) in Complete RPMI. CpG oligonucleotides were incubated with the cells at 40 nM concentration at 37° C. under 5% CO2 for 48 hours. Cells were pelleted by centrifugation for five minutes at 400×g and stained at 4° C. in Fixable Viability Dye eFluor 780 (Thermo Fisher) diluted 1:5000 in PBS. Cells were centrifuged and stained at 4° C. in FACS buffer for 60 minutes containing FcR Blocking Reagent (Miltenyi Biotec), anti-CD14, anti-CD11c, anti-CD3, anti-CD19, anti-CD56, anti-CD16, anti-HLADR, anti-CD40, and anti-CD86 (Thermo Fisher, Biolegend). Cells were centrifuged and washed twice in FACS buffer and fixed in 0.5% paraformaldehyde. Cells were analyzed on Attune NxT Flow Cytometer (Thermo Fisher), with subsequent data analysis by Flowjo 10.7 (Treestar). Dead cells were excluded by gating on the eFluor 780-negative population. […] Levels of activation marker were assessed by median fluorescent intensity.

[2] = test system: THP-1-Dual hTLR9 cell line, interferon regulatory factor (IRF) pathway; experiment: THP-1-Dual hTLR9 reporter assay, IRF pathway (secreted Lucia luciferase); type: cell-based; settings: 24 hours; F(ab′)2 anti-human IgG Fcγ cross-linking agent; read-out: EC50 of IRF induction
Experimental: THP-1-Dual hTLR9 cell line (thpd-nfis, Invivogen) was derived from human THP-1 monocytes engineered to overexpress the human TLR9 (hTLR9) gene and featuring two reporter genes allowing for simultaneous assessment of the NF-kB pathway by monitoring the activity of an inducible secreted embryonic alkaline phosphatase (SEAP), and the interferon regulatory factor (IRF) pathway by monitoring the activity of an inducible secreted Lucia luciferase. Briefly, 250,000 cells in 100 uL of growth media (RPMI 1640 (Gibco), 2 mM L-glutamine (Gibco), 25 mM HEPES (Gibco), 10% FBS (Gibco), 100 U/mL penicillin (Gibco), 100 ug/mL streptomycin (Gibco), 100 ug/mL Normacin (Invivogen) were plated in 96-well flat-bottom plates (Nunc). An 8 step 2-fold serial dilution of anti-SIRP-α antibody or anti-SIRP-α antibody conjugate was added to cells in 50 μL for a final concentration range of 200 nM-1.56 nM. 10 μg/mL of a F(ab′)2 fragment goat anti-human, IgG Fcγ fragment specific (Jackson Immuno Research) was added in 50 μL of growth media as a cross-linking agent. Cells were incubated at 37 C for 24 hours. NF-kB and IRF induction from supernatant was detected according to manufacturer's protocol. EC50 values were derived using three-parameter […] regression curve fir in Prism 9 (GraphPad), and data were presented as fold-over media control. […]

[3] = test system: dendritic cells; experiment: Dendritic cell activation (CD40) in cynomolgus PBMCs; type: cell-based; settings: 48 hours
Experimental: Cynomolgus whole blood was received from BioIVT and diluted 1:3 with Phosphate Buffered Saline (PBS, Gibco). Diluted blood was underplayed with 15 mL 90% Ficoll-Paque (GE Healthcare) in PBS solution. Tubes were centrifuged for 30 minutes at 400×g with break off. Cells were collected from the interface, resuspended and washed in FACS buffer (PBS with 0.5% Bovine Serum Albumin (Gibco)). After one wash, cells were resuspended in ACK lysis buffer (Gibco) for 15 min at room temperature, washed in FACs buffer and centrifuged before repeating. Purified PBMCs were resuspended in Complete RPMI (RPMI, 10% FBS, 1× Pen/Strep, 1× Glutamax). PBMCs were immediately plated onto a 96-well format (0.3e6/well) in Complete RPMI. Three-fold serial dilutions were added to the cells from 1 μM to 1.4 nM of CpG oligonucleotide and 300 nM to 0.4 nM of anti-SIRP-α antibody (heavy chain comprising the sequence of SEQ ID NO:66 and light chain comprising the sequence of SEQ ID NO:75) and the corresponding antibody:CpG conjugate (heavy chain comprising the sequence of SEQ ID NO: 66 and light chain comprising the sequence of SEQ ID NO:75, conjugated to CpG oligo 7-7 (SEQ ID NO:35)) at 37° C. under 5% CO2 for 48 hours. […] Cells were analyzed on Attune NxT Flow Cytometer (Thermo Fisher), with subsequent data analysis by Flowjo 10.7 (Treestar). […] Levels of activation marker were assessed by median fluorescent intensity.

[4] = test system: Ramos-Blue Cells NF-kB/AP-1 Reporter B lymphocytes; experiment: Ramos NFkb Reporter Assay; type: cell-based, human; settings: 1 uM to 64 pM CpG, 24 h; compared to 12070 and ODN2006
Experimental: For Ramos NFkb Reporter Assay, Ramos-Blue Cells NF-kB/AP-1 Reporter B lymphocytes were purchased from Invivogen. Cells were grown and maintained in complete DMEM supplemented with 2 mM L-glutamine, 10% FBS, 100 ug/mL Normacin, Pen-Strep, 100 ug/mL Zeocin. Stimulation of the Ramos-Blue cells was performed. Briefly, cells were rinsed in growth medium without antibiotics. Cells were counted and resuspended in fresh complete DMEM without selection antibiotics at a density of 2×10^6 cell/mL. 20 uL of 10 uM CpG 7-7, CpG 12070 and ODN2006 titrated 1:5 were added to a flat-bottom 96-well plate, 180 uL of the cell suspension were added to a final concentration of 1 uM to 64 pM of CpG. Plate was incubated at 37° C. in a 5% CO2 incubator for 24 h. On day of assay, QB reagent and QB buffer were thawed before us. Quanti-Blue solution was prepared by adding 1 mL of QB reagent and […] QB buffer to 98 mL of sterile water in a sterile glass bottle. 180 μL of Quanti-Blue solution was dispensed per well into a new flat-bottom 96-well plate. 20 μL of supernatant from treated Ramos-Blue cells was then added to the 96-well plate. Plate was ten incubated for 6 h. Optical density was measured at OD655 using a plate reader (Molecular Devices), and data was tabulated in GraphPad Prism 9.0.

[5] = test system: PBMC cells from three different donor lines (D559, D804 and D643); experiment: CpG activity on PBMCs from different donors (CD40 expression); type: cell-based, human; settings: PBMCs of donors D559, D804 and D643; compared with 12070
Experimental: Trima residuals were received from Vitalant and diluted 1:2 with Phosphate Buffered Saline (PBS, Gibco). Diluted blood was split into two tubes and underplayed with 15 mL Ficoll-Paque (GE Healthcare). Tubes were centrifuged for 30 minutes at 400×g. PBMCs were collected from the interface, resuspended and washed in FACS buffer (PBS with 0.5% Bovine Serum Albumin (Gibco)). After one wash, PBMCs were resuspended in Complete RPMI (RPMI+10% FBS).
PBMCs were immediately plated onto a 96-well format (500K/well) in Complete RPMI. Five-fold serial dilutions were added to the cells from 1 uM to 64 pM of CpG oligonucleotides at 37° C. under 5% CO2 for 48 hours. Cells were pelleted by centrifugation for five minutes at 400×g and stained at 4° C. in Fixable Viability Dye eFluor 780 (Thermo Fisher) diluted 1:4000 in PBS. Cells were centrifuged and stained at 4° C. in FACS buffer for 30 minutes containing FcR Blocking Reagent (Miltenyi Biotec), anti-CD19, anti-CD20, anti-CD40, anti-HLADR and anti-CD80. Cells were centrifuged and washed twice in FACS buffer and fixed in 0.5% paraformaldehyde. Cells were analyzed on Attune NxT Flow Cytometer (Thermo Fisher), with subsequent data analysis by Flowjo 10.7 (Treestar). Dead cells were excluded by gating on the eFluor 780-negative population. B cells were identified as CD19+CD20+ cells and level of activation marker was assessed by median fluorescent intensity. […]

[6] = test system: dendritic cells; experiment: Dendritic cell activation (CD40) in human PBMCs; type: cell-based; settings: 24 hours
Experimental: Trima residuals were received from Vitalant and diluted 1:3 with Phosphate Buffered Saline (PBS, Gibco). Diluted blood was underplayed with 15 mL Ficoll-Paque (GE Healthcare). Tubes were centrifuged for 30 minutes at 400×g with break off. PBMCs were collected from the interface, resuspended and washed in FACS buffer (PBS with 0.5% Bovine Serum Albumin (Gibco)). After one wash, PBMCs were resuspended in Complete RPMI (RPMI, 10% FBS, 1× Pen/Strep, 1× Glutamax). PBMCs were immediately plated onto a 96-well format (1e6/well) in Complete RPMI. Three-fold serial dilutions were added to the cells from 300 nM to 0.4 nM for anti-SIRP-α antibody (heavy chain comprising the sequence of SEQ ID NO:66 and light chain comprising the sequence of SEQ ID NO:75) and anti-SIRP-α conjugate (heavy chain comprising the sequence of SEQ ID NO:66 and a light chain comprising the sequence of SEQ ID NO:75, conjugated to CpG oligo 7-7 (SEQ ID NO:35)). Free CpG 7-7 (SEQ ID NO:35) was titrated from 3 μM to 4.12 nM. Cells were incubated at 37° C. under 5% CO2 for 24 hours. […] Cells were analyzed on Attune NxT Flow Cytometer (Thermo Fisher), with subsequent data analysis by Flowjo 10.7 (Treestar). […] Levels of activation marker were assessed by median fluorescent intensity.

## CpG 7-7 (DNA TCGTCGTGTCGTTT; modified_base 1 OTHER; 5-Bromo-2'-deoxyuridine; modified_base 13..14 OTHER; 2'-O-Methyl-Thymidine; modified_base 1..4 OTHER; phosphorothioate linkages; misc_feature 4^5 phosphotriester linker-PEG24-NH2; modified_base 5..9 OTHER; modified_base 9^10 OTHER; phosphorodithioate linkage; modified_base 10..14 OTHER; misc_feature 14 3' spacer C3)
[1]
  activation of CD40: higher activation of CD40
[2]
  EC50: 84 nM
[3]
  surface marker expression (CD40) on dendritic cells: potent TLR9 agonist with targeted dendritic cell activation across species
[4]
  activity in NFkb reporter assay: significantly higher activity
[5]
  activity as observed by CD40 expression: higher activities
[6]
  surface marker expression (CD40) on dendritic cells: potent TLR9 agonist with targeted dendritic cell activation across species

From patent US20240374746A1, “SIRP-ALPHA ANTIBODIES AND CONJUGATES” (Tallac Therapeutics, Inc., priority 2021, published 2024)
